Measurements from the supplement of paper PMC7224384.

Legend:
[1] = tested on: MDA-MB-453; assay: drug sensitivity score (DSS), single agent (DSS (weighted AUC score)); higher = more sensitive (stronger viability decrease); extreme values may be limits of the assay; details: BLU9931 0 nM; 72 h
In short: (§1)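 Drug sensitivity scores come from a weighted area under a four-parameter logistic fit to percent viability, normalised per plate to control wells. Viability was based on cellular ATP read with CellTiterGlo 2.0 after 72 h at 37 °C, 5% CO2. Each 384-well plate carried FIMM Oncology set compounds in singlicate at five 10-fold dilutions, with 2000 MDA-MB-453 cells per well in medium with or without an FGFR4 inhibitor at 100 nM final.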

[2] = tested on: MDA-MB-453; assay: drug sensitivity score (DSS), in combination with BLU9931 (DSS (weighted AUC score)); higher = more sensitive (stronger viability decrease); extreme values may be limits of the assay; details: BLU9931 100 nM; 72 h
In short: as §1

COCCOc1cnc2ccn([C@H](C)c3nnc4c(F)cc(-c5cnn(C)c5)cn34)c(=O)c2c1 [AMG-337]
drug sensitivity score [1]: 0 | drug sensitivity score [2]: 0

CC1CCC(n2c3cnccc3c3cnc(Nc4ccc5c(n4)CCN(C(=O)CO)C5)nc32)CC1 (centres undefined) [AMG-925]
drug sensitivity score [1]: 2.6 | drug sensitivity score [2]: 3.4

COCC1(CO)C(=O)C2CCN1CC2 (centres undefined) [APR-246]
drug sensitivity score [1]: 0 | drug sensitivity score [2]: 0.4

CC(C)[C@H](C(=O)Nc1ccc(C(=O)NO)cc1)c1ccccc1 [AR-42]
drug sensitivity score [1]: 18.1 | drug sensitivity score [2]: 17.8

Cc1sc2c(c1C)C(c1ccc(Cl)cc1)=N[C@@H](CC(=O)Nc1ccc(OCCOCCOCCOCCNc3cccc4c3C(=O)N(C3CCC(=O)NC3=O)C4=O)cc1)c1nnc(C)n1-2 (some centres undefined) [ARV-825]
drug sensitivity score [1]: 10.1 | drug sensitivity score [2]: 10.7

COc1cc(N2CCC(N3CCN(C)CC3)CC2)ccc1Nc1ncnc(Nc2ccccc2S(=O)(=O)C(C)C)n1 [ASP3026]
drug sensitivity score [1]: 0.8 | drug sensitivity score [2]: 0.3

O=C(NC1CCNCC1)c1n[nH]cc1NC(=O)c1c(Cl)cccc1Cl [AT7519]
drug sensitivity score [1]: 13.2 | drug sensitivity score [2]: 14.6

O=C(Nc1c[nH]nc1-c1nc2ccc(CN3CCOCC3)cc2[nH]1)NC1CC1 [AT9283]
drug sensitivity score [1]: 2.3 | drug sensitivity score [2]: 2.3

CN[C@@H](C)C(=O)N[C@H]1CN(C(=O)CC(C)C)CC[C@H]2CC[C@@H](C(=O)NC(c3ccccc3)c3ccccc3)N2C1=O [AT-406]
drug sensitivity score [1]: 5.1 | drug sensitivity score [2]: 5.1

CC[C@H](CC#N)OC(=O)N[C@@H](C)c1cccc(NC(=O)Nc2ccc(-c3cnco3)c(OC)c2)c1 [AVN944]
drug sensitivity score [1]: 7.1 | drug sensitivity score [2]: 3.2

COc1cc(N2CCN(C)CC2)ccc1Nc1nccc(-c2cn(C)c3cnccc23)n1 [AZ191]
drug sensitivity score [1]: 1.3 | drug sensitivity score [2]: 1.2

COc1cc(OC2CCN(C)CC2)ccc1Nc1ncc2c(n1)n(C1CCCC1)c(=O)n2C [AZ 3146]
drug sensitivity score [1]: 2.6 | drug sensitivity score [2]: 1

CN(C)CCCOc1ccc(-c2ccc3ncc4c(c3c2)n(C2CCOCC2)c(=O)n4C)cn1 [AZD0156]
drug sensitivity score [1]: 1.6 | drug sensitivity score [2]: 3

N[C@@H]1CCCN(c2c(/C=C3\SC(=O)NC3=O)cccc2-c2ccccc2)C1 [AZD1208]
drug sensitivity score [1]: 0.3 | drug sensitivity score [2]: 0.1

Cc1cc(Nc2nc(N[C@@H](C)c3ncc(F)cn3)ncc2Cl)[nH]n1 [AZD1480]
drug sensitivity score [1]: 0.3 | drug sensitivity score [2]: 0

C=CCn1c(=O)c2cnc(Nc3ccc(N4CCN(C)CC4)cc3)nc2n1-c1cccc(C(C)(C)O)n1 [AZD1775]
drug sensitivity score [1]: 13.7 | drug sensitivity score [2]: 12.4

COc1cc2ncnc(Nc3cccc(Cl)c3F)c2cc1OC(=O)N1CCN(C)C[C@H]1C [AZD3759]
drug sensitivity score [1]: 0 | drug sensitivity score [2]: 0.9

Cc1[nH]nc(C(F)(F)F)c1Cc1sc2c(c1C(=O)N1C[C@](C)(O)CO1)c(=O)n(C)c(=O)n2C(C)C [AZD3965]
drug sensitivity score [1]: 0 | drug sensitivity score [2]: 0

COc1cc(CCc2cc(NC(=O)c3ccc(N4CC(C)NC(C)C4)cc3)n[nH]2)cc(OC)c1 (centres undefined) [AZD4547]
drug sensitivity score [1]: 0.3 | drug sensitivity score [2]: 0

C[C@@H]1COCCN1c1cc(C2([S@](C)(=N)=O)CC2)nc(-c2cc[nH]c3nccc2-3)n1 [AZD6738]
drug sensitivity score [1]: 11 | drug sensitivity score [2]: 10.7

CN(C)C(=O)c1ccc(S(=O)(=O)c2ccc(NC(=O)[C@@](C)(O)C(F)(F)F)c(Cl)c2)cc1 [AZD7545]
drug sensitivity score [1]: 0.1 | drug sensitivity score [2]: 0.2

NC(=O)Nc1cc(-c2cccc(F)c2)sc1C(=O)N[C@H]1CCCNC1 [AZD7762]
drug sensitivity score [1]: 5 | drug sensitivity score [2]: 4

COc1ccc(-c2ccc3c(N4CCOC[C@@H]4C)nc(N4CCOC[C@@H]4C)nc3n2)cc1CO [AZD8055]
drug sensitivity score [1]: 24.3 | drug sensitivity score [2]: 23.3

N#Cc1ccc2[nH]c(O)c(-c3ccc(CN4CCOCC4)cn3)c2c1 [AZD-1080]
drug sensitivity score [1]: 0 | drug sensitivity score [2]: 0

Cc1ncc(-c2ccnc(Nc3ccc(S(C)(=O)=O)cc3)n2)n1C(C)C [AZD-5438]
drug sensitivity score [1]: 6.1 | drug sensitivity score [2]: 7.9

Cc1cc([C@@H](C)Nc2ccccc2C(=O)O)c2nc(N3CCOCC3)cc(=O)n2c1 [AZD-6482]
drug sensitivity score [1]: 7.5 | drug sensitivity score [2]: 7.4

C[C@@H](Nc1cc(F)cc(F)c1)c1cc(C(=O)N(C)C)cc2c(=O)cc(N3CCOCC3)oc12 [AZD-8186]
drug sensitivity score [1]: 1.7 | drug sensitivity score [2]: 2.3

CCN1CCN(Cc2ccc(Nc3ncc(F)c(-c4cc(F)c5nc(C)n(C(C)C)c5c4)n3)nc2)CC1 [Abemaciclib]
drug sensitivity score [1]: 4.1 | drug sensitivity score [2]: 7.8

CN(C)Cc1c(C(=O)NCCOc2ccc(C(=O)NO)cc2)oc2ccccc12 [Abexinostat]
drug sensitivity score [1]: 22.6 | drug sensitivity score [2]: 22.3

C[C@]12CC[C@H](O)CC1=CC[C@@H]1[C@@H]2CC[C@]2(C)C(c3cccnc3)=CC[C@@H]12 [Abiraterone]
drug sensitivity score [1]: 0 | drug sensitivity score [2]: 0

CC#CC(=O)N1CCC[C@H]1c1nc(-c2ccc(C(=O)Nc3ccccn3)cc2)c2c(N)nccn12 [Acalabrutinib]
drug sensitivity score [1]: 4.2 | drug sensitivity score [2]: 2.4

COc1cc(C)c(/C=C/C(C)=C/C=C/C(C)=C/C(=O)O)c(C)c1C [Acitretin]
drug sensitivity score [1]: 0.2 | drug sensitivity score [2]: 0

CN(C)C/C=C/C(=O)Nc1cc2c(Nc3ccc(F)c(Cl)c3)ncnc2cc1O[C@H]1CCOC1 [Afatinib]
drug sensitivity score [1]: 6.2 | drug sensitivity score [2]: 10.1

Cn1ncc(Cl)c1-c1cc(C(=O)N[C@H](CN)Cc2cccc(F)c2)sc1Cl [Afuresertib]
drug sensitivity score [1]: 7.9 | drug sensitivity score [2]: 8.4

COc1cccc2c1C(=O)c1c(O)c3c(c(O)c1C2=O)C[C@@](O)(/C(CO)=N/NC(=O)CCCCCN1C(=O)C=CC1=O)C[C@@H]3O[C@H]1C[C@H](N)[C@H](O)[C@H](C)O1 [Aldoxorubicin]
drug sensitivity score [1]: 5.8 | drug sensitivity score [2]: 5.4

CCc1cc2c(cc1N1CCC(N3CCOCC3)CC1)C(C)(C)c1[nH]c3cc(C#N)ccc3c1C2=O [Alectinib]
drug sensitivity score [1]: 0.9 | drug sensitivity score [2]: 0

COc1cc(Nc2ncc3c(n2)-c2ccc(Cl)cc2C(c2c(F)cccc2OC)=NC3)ccc1C(=O)O [Alisertib]
drug sensitivity score [1]: 0 | drug sensitivity score [2]: 1.7

Oc1ncnc2[nH]ncc12 [Allopurinol]
drug sensitivity score [1]: 0.1 | drug sensitivity score [2]: 0.3

Cc1nc(NC(=O)N2CCC[C@H]2C(N)=O)sc1-c1ccnc(C(C)(C)C(F)(F)F)c1 [Alpelisib]
drug sensitivity score [1]: 7.2 | drug sensitivity score [2]: 8

O=C(Nc1cc(Oc2cc(F)c(NC(=O)C3(C(=O)Nc4ccc(F)cc4)CC3)cc2F)ccn1)C1CC1 [Altiratinib]
drug sensitivity score [1]: 7.1 | drug sensitivity score [2]: 3.5

CN1CC[C@H](c2c(O)cc(O)c3c(=O)cc(-c4ccccc4Cl)oc23)[C@H](O)C1 [Alvocidib]
drug sensitivity score [1]: 14.5 | drug sensitivity score [2]: 16.2

CCN(CC)CCNC(=O)c1c(C)[nH]c(/C=C2\C(=O)Nc3ccc(-c4csc(-c5ccccc5)n4)cc32)c1C [Amcasertib]
drug sensitivity score [1]: 2.5 | drug sensitivity score [2]: 1

CCC1(c2ccc(N)cc2)CCC(=O)NC1=O (centres undefined) [Aminoglutethimide]
drug sensitivity score [1]: 0 | drug sensitivity score [2]: 1.3

COc1cc(NS(C)(=O)=O)ccc1Nc1c2ccccc2nc2ccccc12 [Amsacrine]
drug sensitivity score [1]: 1.2 | drug sensitivity score [2]: 2

S=C(NCc1ccc2c(c1)OCO2)N1CCN(c2ncnc3c2oc2ccccc23)CC1 [Amuvatinib]
drug sensitivity score [1]: 3.3 | drug sensitivity score [2]: 0.3

O=C1CN2Cc3c(ccc(Cl)c3Cl)N=C2N1 [Anagrelide]
drug sensitivity score [1]: 0 | drug sensitivity score [2]: 0

CC(C)(C#N)c1cc(Cn2cncn2)cc(C(C)(C)C#N)c1 [Anastrozole]
drug sensitivity score [1]: 0 | drug sensitivity score [2]: 0

CNC(=O)c1ccc(N2C(=S)N(c3cnc(C#N)c(C(F)(F)F)c3)C(=O)C23CCC3)cc1F [Apalutamide]
drug sensitivity score [1]: 0 | drug sensitivity score [2]: 0

N#CC1(c2ccc(NC(=O)c3cccnc3NCc3ccncc3)cc2)CCCC1 [Apatinib]
drug sensitivity score [1]: 0.7 | drug sensitivity score [2]: 0

O=C(Nc1ccc(OC(F)(F)Cl)cc1)c1cnc(N2CC[C@@H](O)C2)c(-c2cc[nH]n2)c1 [Asciminib]
drug sensitivity score [1]: 3.4 | drug sensitivity score [2]: 1.2

CC(C)c1c(C(=O)Nc2ccccc2)c(-c2ccccc2)c(-c2ccc(F)cc2)n1CC[C@@H](O)C[C@@H](O)CC(=O)O [Atorvastatin]
drug sensitivity score [1]: 0 | drug sensitivity score [2]: 0

CC(=O)OC[C@H]1O[C@@H]([S-])[C@H](OC(C)=O)[C@@H](OC(C)=O)[C@@H]1OC(C)=O.CCP(CC)CC.[Au+] [Auranofin]
drug sensitivity score [1]: 8.9 | drug sensitivity score [2]: 8.8

CNC(=O)c1ccccc1Sc1ccc2c(/C=C/c3ccccn3)n[nH]c2c1 [Axitinib]
drug sensitivity score [1]: 2.2 | drug sensitivity score [2]: 0.3

Nc1ncn([C@@H]2O[C@H](CO)[C@@H](O)[C@H]2O)c(=O)n1 [Azacitidine]
drug sensitivity score [1]: 0.5 | drug sensitivity score [2]: 0.4

Cc1cc(-c2nc(-c3ccc(OC(F)(F)F)cc3)no2)nn1Cc1ccnc(N2CCN(C3CC3)CC2)c1 [BAY 87-2243]
drug sensitivity score [1]: 12.2 | drug sensitivity score [2]: 10.4

Nc1nc(Nc2ccc3c(c2)CC[C@@H](N2CCCC2)CC3)nn1-c1cc2c(nn1)-c1ccccc1CCC2 [BGB324]
drug sensitivity score [1]: 3.2 | drug sensitivity score [2]: 0.2

O=C1CCc2c(Oc3ccc4c(c3)[C@@H]3[C@H](O4)[C@H]3c3nc4cc(C(F)(F)F)ccc4[nH]3)ccnc2N1 [BGB-283]
drug sensitivity score [1]: 3.6 | drug sensitivity score [2]: 1.3
